Values after ≈ are worked out from the molar mass of the structure shown. Where two headings read alike, the source gives them in different places.
What was measured:
[1] = test system: Staphylococcus aureus (ATCC29213); assay: MIC by microbroth dilution, methicillin sensitive S. aureus; type: cell-based; settings: read-out: Minimum inhibitory concentration (MIC) Staphylococcus aureus (ATCC29213)
Protocol: (§1) Shown below are the biological activities of representative compounds of the invention. The compounds were tested by the microbroth dilution method (National committee for Clinical Laboratory Standards, M07-A8, Volume 29, 2009) to determine the Minimum Inhibitory Concentration (MIC) against Methicillin sensitive and resistant Staphylococcus aureus. The MICs in the presence of 10% BSA was also tested. Further, select compounds were tested for metabolic stability using mouse liver microsomes based on published protocols (Journal of Biological Sciences, 2008, 8, 1110-1114).

[2] = test system: Methicillin resistant Staphylococcus aureus (ATCC 33591); assay: MIC by microbroth dilution, methicillin resistant S. aureus; type: cell-based; settings: ATCC33591, read-out: Minimum inhibitory concentration (MIC) Methicillin resistant Staphylococcus aureus (ATCC 33591)
Protocol: as §1

[3] = test system: Methicillin resistant Staphylococcus aureus (ATCC 33591); assay: MIC in the presence of BSA; type: cell-based; settings: ATCC33591, 10% BSA
Protocol: as §1

[4] = Metabolic stability in mouse liver microsomes; type: in vitro ADME
Protocol: as §1

[5] = test system: Bacillus subtilis (ΔFabI, ΔFabL; Pxylose SaFabI); assay: Target specificity: MIC in B. subtilis expressing S. aureus FabI under xylose inducible promoter; type: cell-based
Protocol: To test for target specificity, the MIC was determined in a Bacillus subtilis strain in which the two FabI homologues (FabI and FabL) were deleted and replaced with S. aureus FabI (Sa FabI) under a Xylose inducible promoter. By varying the amount of xylose in the growth medium, the expression of FabI was proportionately modified. Compounds specifically targeting Sa FabI show an increased MIC when higher amounts of FabI are present in the cell (high Xylose concentrations). In contrast, when FabI levels are low, the cell becomes hypersusceptible, reducing the MIC (low Xylose concentrations). […] Shown below are data for target specificity.

[6] = Pharmacokinetic profile in male Swiss albino mice; settings: mouse, in vivo; for AUC / Cmax / clearance / half-life: intravenous single dose 5 mg/kg body weight; for bioavailability: po
Protocol: The following compounds were dosed to male Swiss albino mice to determine the pharmacokinetic profiles.

MRSA ATCC33591 = assay: Systemic infection model in mice; type: in vivo
Protocol: In order to evaluate the in vivo efficacy of the scaffold, we tested representative compounds for activity in the systemic infection model in mice (Antimicrobial Agents and Chemotherapy, 47, 2507-2512, 2003). In this model, a 15× medial lethal dose of the bacteria (MRSA ATCC33591) was administered to mice intraperitoneally. 1 hour later, VT-02-00068 was administered i.v. at doses of 30, 10 and 3 mg/kg body weight. The compound was administered again 4 hours later. A total of 5 doses were administered, i.e. 2 doses on day 0, 2 on day 1 and 1 on day 2. […] The survival was 100, 100 and 65% at 30, 10 and 3 mg/kg body weight respectively.
VT-02-00044 was tested using the same protocol. The compound was dosed at 50 mg/kg body weight for 3 days, 2 doses per day.

[7] = Mutation prevention concentration; type: cell-based
Protocol: The mutation prevention concentration or the concentration above which mutants are unlikely to be selected, was determined based on published protocols (Antimicrobial Agents and Chemotherapy, 45, 433-438, 2001).

E. coli ATCC 25922 = assay: MIC against non-S. aureus strains; type: cell-based
Protocol: (§2) A subset of compounds was tested against non-S. aureus strains to determine the Minimum Inhibitory Concentration (MIC) against non-S. aureus species (National committee for Clinical Laboratory Standards, M07-A8, Volume 29, 2009).

E. feacalis ATCC 29212 = assay: MIC against non-S. aureus strains; type: cell-based
Protocol: as §2

H. influenzae ATCC 49247 = assay: MIC against non-S. aureus strains; type: cell-based
Protocol: as §2

M. catarrhalis ATCC 8176 = assay: MIC against non-S. aureus strains; type: cell-based
Protocol: as §2

[8] = test system: S. epidermidis ATCC 12228; assay: MIC against non-S. aureus strains; type: cell-based
Protocol: as §2

[9] = test system: S. haemolyticus ATCC 29970; assay: MIC against non-S. aureus strains; type: cell-based
Protocol: as §2

S. pneumoniae ATCC 6301 = assay: MIC against non-S. aureus strains; type: cell-based
Protocol: as §2

[10] = read-out: MIC in the presence of 0.005% Xylose (low Xylose concentration)
[11] = read-out: MIC in the presence of 0.5% Xylose (high Xylose concentration)

Compound | MIC [1] [ng/mL] | MIC [2] [ng/mL] | MIC [3] [ng/mL] | Metabolic stability (mouse liver microsomes) % of compound remaining after 30 minutes [4] [%] | MIC [5, 10] [ng/mL] | MIC [5, 11] [ng/mL] | AUC [6] [ng·h/mL] | Cmax [6] [ng/mL] | clearance [6] [mL/min/kg] | half-life [6] [h] | bioavailability [6] [%] | further results
CCn1c(=O)[nH]c2ncc(/C=C/C(=O)N(C)Cc3cc4ccccc4n3C)cc21 [VT-02-00044, (E)-3-(1-ethyl-2-oxo-2,3-dihydro-1H-imidazo[4,5-b]pyridin-6-yl)-N-methyl-N-((1-methyl-1H-indol-2-yl)methyl)acrylamide] | 500 (≈ 1.28 µM) | 1000 (≈ 2.57 µM) | 2000 | 50 | < 1.9 | 15 | 1040 | 949 | 75.9 | 1.65 | 29 | Survival (MRSA ATCC33591; 50 mg/kg body weight for 3 days, 2 doses per day): 100%
CCC1(CC)C(=O)Nc2ncc(/C=C/C(=O)N(C)Cc3cc4ccccc4n3C)cc21 [VT-02-00064, (E)-3-(3,3-diethyl-2-oxo-2,3-dihydro-1H-pyrrolo[2,3-b]pyridin-5-yl)-N-methyl-N-((1-methyl-1H-indol-2-yl)methyl)acrylamide] | 120 (≈ 0.288 µM) | 120 (≈ 0.288 µM) | 1000 | 18 | 30 | 250 | 1400 | 1810 | 59.4 | 0.44 | 51.5 | –
Cc1c(CN(C)C(=O)/C=C/c2cnc3c(c2)C(C)(C)C(=O)N3)oc2ccccc12 [VT-02-00068, (E)-3-(3,3-dimethyl-2-oxo-2,3-dihydro-1H-pyrrolo[2,3-b]pyridin-5-yl)-N-methyl-N-((3-methylbenzofuran-2-yl)methyl)acrylamide] | 15 (≈ 0.0385 µM) | 15 (≈ 0.0385 µM) | 500 | 21 | < 0.06 | 15 | 10300 | 7850 | 7.83 | 1.82 | 56.1 | Mutation prevention concentration [7]: 0.5 ug/ml μg/ml; MIC E. coli ATCC 25922 (E. coli ATCC 25922): > 16000 ng/mL; MIC E. feacalis ATCC 29212 (E. feacalis ATCC 29212): > 16000 ng/mL; MIC H. influenzae ATCC 49247 (H. influenzae ATCC 49247): > 16000 ng/mL; MIC M. catarrhalis ATCC 8176 (M. catarrhalis ATCC 8176): > 16000 ng/mL; MIC S. epidermidis ATCC 12228 [8]: 30 ng/mL (≈ 0.077 µM); MIC S. haemolyticus ATCC 29970 [9]: 250 ng/mL (≈ 0.642 µM); MIC S. pneumoniae ATCC 6301 (S. pneumoniae ATCC 6301): > 32000 ng/mL; Survival (MRSA ATCC33591; 3 mg/kg body weight i.v., 5 doses, mortality observed for 7 days): 65%; Survival (MRSA ATCC33591; 10 mg/kg body weight i.v., 5 doses, mortality observed for 7 days): 100%; Survival (MRSA ATCC33591; 30 mg/kg body weight i.v., 5 doses, mortality observed for 7 days): 100%
CCC1(CC)C(=O)Nc2ncc(/C=C/C(=O)N(C)Cc3oc4ccccc4c3C)cc21 [VT-02-00071, (E)-3-(3,3-diethyl-2-oxo-2,3-dihydro-1H-pyrrolo[2,3-b]pyridin-5-yl)-N-methyl-N-((3-methylbenzofuran-2-yl)methyl)acrylamide] | 15 (≈ 0.0359 µM) | 15 (≈ 0.0359 µM) | 250 | 12 | 0.000477 | 0.06 | 1220 | 1550 | 67.8 | 0.52 | 26 | –
Cc1c(CN(C)C(=O)/C=C/c2cnc3c(c2)C2(CCC2)C(=O)N3)sc2ccccc12 [VT-02-00073, (E)-N-methyl-N-((3-methylbenzo[b]thiophen-2-yl)methyl)-3-(2′-oxo-1′,2′-dihydrospiro[cyclobutane-1,3′-pyrrolo[2,3-b]pyridine]-5′-yl)acrylamide] | 15 (≈ 0.0359 µM) | 15 (≈ 0.0359 µM) | 250 | 11 | 0.00381 | 0.97 | 7320 | 4380 | 11.1 | 1.89 | 38.5 | –
Cc1c(CN(C)C(=O)/C=C/c2cnc3c(c2)C2(CCCC2)C(=O)N3)sc2ccccc12 [VT-02-00074, (E)-N-methyl-N-((3-methylbenzo[b]thiophen-2-yl)methyl)-3-(2′-oxo-1′,2′-dihydrospiro[cyclopentane-1,3′-pyrrolo[2,3-b]pyridine]-5′-yl)acrylamide] | 60 (≈ 0.139 µM) | 60 (≈ 0.139 µM) | 1000 | 8 | 7.8 | 60 | – | – | – | – | – | –
Cc1c(CN(C)C(=O)/C=C/c2cnc3c(c2)C2(CCCCC2)C(=O)N3)sc2ccccc12 [VT-02-00075, (E)-N-methyl-N-((3-methylbenzo[b]thiophen-2-yl)methyl)-3-(2′-oxo-1′,2′-dihydrospiro[cyclohexane-1,3′-pyrrolo[2,3-b]pyridine]-5′-yl)acrylamide] | 500 (≈ 1.12 µM) | 500 (≈ 1.12 µM) | 4000 | 5 | < 0.00191 | 0.00763 | – | – | – | – | – | –
CCC1(CC)C(=O)Nc2ncc(/C=C/C(=O)N(C)Cc3sc4ccccc4c3C)cc21 [VT-02-00078, (E)-3-(3,3-diethyl-2-oxo-2,3-dihydro-1H-pyrrolo[2,3-b]pyridin-5-yl)-N-methyl-N-((3-methylbenzo[b]thiophen-2-yl)methyl)acrylamide] | 15 (≈ 0.0346 µM) | 15 (≈ 0.0346 µM) | 250 | 15 | < 2.98e-05 | 1.91e-05 | 1410 | – | 58.5 | 0.32 | 67.1 | –
CN(Cc1cn(C)c2ccccc12)C(=O)/C=C/c1ccc2c(c1)C1(CCC1)C(=O)N2 [VT-02-00085, (E)-N-methyl-N-((1-methyl-1H-indol-3-yl)methyl)-3-(2′-oxospiro[cyclobutane-1,3′-indoline]-5′-yl)acrylamide] | 60 (≈ 0.15 µM) | 60 (≈ 0.15 µM) | 1000 | 33 | 0.97 | 60 | – | – | – | – | – | –
Cc1ccc2oc(CN(C)C(=O)/C=C/c3ccc4c(c3)C3(CCC3)C(=O)N4)c(C)c2c1 [VT-02-00086, (E)-N-((3,5-dimethylbenzofuran-2-yl)methyl)-N-methyl-3-(2′-oxospiro[cyclobutane-1,3′-indoline]-5′-yl)acrylamide] | 500 (≈ 1.21 µM) | 500 (≈ 1.21 µM) | 8000 | 26 | 60 | 500 | – | – | – | – | – | –
Cc1c(CN(C)C(=O)/C=C/c2cnc3c(c2)C2(CCC2)C(=O)N3)c2ccccc2n1C [VT-02-00091, (E)-N-((1,2-dimethyl-1H-indol-3-yl)methyl)-N-methyl-3-(T-oxo-1′,2′-dihydrospiro[cyclobutane-1,3′-pyrrolo[2,3-b]pyridine]-5′-yl)acrylamide] | 15 (≈ 0.0362 µM) | 15 (≈ 0.0362 µM) | 120 | 21 | – | 0.061 | – | – | – | – | – | Mutation prevention concentration [7]: 0.06 µg/mL; MIC E. coli ATCC 25922 (E. coli ATCC 25922): > 16000 ng/mL; MIC E. feacalis ATCC 29212 (E. feacalis ATCC 29212): > 16000 ng/mL; MIC H. influenzae ATCC 49247 (H. influenzae ATCC 49247): > 16000 ng/mL; MIC M. catarrhalis ATCC 8176 (M. catarrhalis ATCC 8176): > 16000 ng/mL; MIC S. epidermidis ATCC 12228 [8]: 15 ng/mL (≈ 0.0362 µM); MIC S. haemolyticus ATCC 29970 [9]: 15 ng/mL (≈ 0.0362 µM); MIC S. pneumoniae ATCC 6301 (S. pneumoniae ATCC 6301): > 32000 ng/mL
Cc1c(CN(C)C(=O)/C=C/c2cnc3c(c2)C2(CCC2)C(=O)N3)oc2ccccc12 [VT-02-00092, (E)-N-methyl-N-((3-methylbenzofuran-2-yl)methyl)-3-(2′-oxo-1′,2′-dihydrospiro[cyclobutane-1,3′-pyrrolo[2,3-b]pyridine]-5′-yl)acrylamide] | 60 (≈ 0.149 µM) | 60 (≈ 0.149 µM) | 250 | 22 | – | 3.9 | – | – | – | – | – | –

From US9115149B2, “Heterocyclic compounds as inhibitors of fatty acid biosysnthesis for bacterial infections” (Vitas Pharma Research Private Limited, priority 2011, dated 2015)
